Measured values taken from US10059655B2, “Lipids and lipid compositions for the delivery of active agents” (priority 2013, dated 2018).

Test: Measurement of mRNA encapsulation in lipid nanoparticles (Quant-iT Ribogreen)
Type: physicochemical
Conditions: Leptin mRNA in LNP
Protocol: All equipment and disposable supplies are certified free of RNase activity by the manufacturer or rendered RNase free by use of the RNaseZap reagent (LifeTechnologies). mRNA is encapsulated at a cationic lipid amine to mRNA phosphate (N:P) molar ratio of 4:1. Lipids (cationic lipid, DSPC, cholesterol and lipidated PEG or stealth lipid) are dissolved in ethanol. The molar ratios are 40:10:38:2, respectively. The mixture is sonicated briefly, then gently agitated for 5 minutes and then maintained at 37° C. until use. mRNA is exchanged into citrate buffer pH 5.8-6.0 by use of Amicon Ultra-15 centrifugal concentrators, and the final concentration is adjusted to 0.5 mg/ml and held at 37° C. until use. An equal volume of lipids in ethanol, mRNA in citrate buffer, and citrate buffer alone are drawn into disposable syringes.
Tubing leading from syringes containing lipids and mRNA are attached to the T junction, and tubing leading from the syringe containing citrate buffer alone is paired with the tubing exiting the T-junction over a collection vessel containing a stir bar on an active stir plate. Syringes are placed in a syringe pump set to expel contents at a flow rate of 1 ml per minute. The pump is activated, and the collected mRNA in lipid nanoparticles is transferred to SnakeSkin dialysis tubing (10,000 MWCO, Thermo Scientific). Material is dialyzed against RNAse- and pyrogen-free 1× phosphate buffered saline overnight at 4° C.
Percent encapsulation of mRNA in lipid nanoparticles is determined using the Quant-iT Ribogreen RNA Assay kit (Life Technologies). The LNP-mRNA suspension is assayed in buffer (mRNA outside the particle), and buffer plus Triton X-100 detergent (total mRNA). The difference calculated is the mRNA inside the particle. Prepare a 1000 ng/mL stock from the RNA provided in the kit and use this to generate a standard curve (0 ng/ml, 15.63-1000 ng/ml) in TE and TE+0.75% Triton X-100. Prepare LNP-mRNA samples in TE buffer and TE buffer+0.75% Triton X-100 with appropriate dilution so that reading is in the range of standard curve (400-2,000 fold). In a 384-well plate (Costar non-treated #3573) add 0.04 ml of standard (in duplicate) or sample (in triplicate) per well. Dilute Ribogreen reagent 240-fold in TE buffer and add 0.06 ml per well. Mix contents of wells and measure fluorescence (excitation=480 nm, emission=520 nm). Subtract background values (no RNA) from standard and test sample values and determine the concentrations of RNA in the samples using the standard curves. Determine the percent encapsulation of the sample by dividing the difference in concentrations between sample+triton and sample in buffer alone by the sample+triton concentration.

% encapsulation mRNA Leptin [%]	SMILES
95.2	CCCCCCCCOC(CCC(=O)OCC(COC(=O)CCC(OCCCCCCCC)OCCCCCCCC)COC(=O)C1CCN(C)C1)OCCCCCCCC (centres unmarked) [Example 57, 2-(((1-methylpyrrolidine-3-carbonyl)oxy)methyl)propane-1,3-diyl bis(4,4-bis(octyloxy)butanoate)]
89.1	CCCCCCCCOC(CCCCC(=O)OCC(COC(=O)CCCCC(OCCCCCCCC)OCCCCCCCC)COC(=O)C1CCN(C)C1)OCCCCCCCC (centres unmarked) [Example 60, 2-(((1-methylpyrrolidine-3-carbonyl)oxy)methyl)propane-1,3-diyl bis(6,6-bis(octyloxy)hexanoate)]
18.8	CCCCCCCCCCCCCCCC(=O)OCC(COC(=O)CCCCC(COC(=O)CCCCCCC)COC(=O)CCCCCCC)COC(=O)C1CCN(C)C1 (centres unmarked) [Example 63, 2-(5-(3-((1-methylpyrrolidine-3-carbonyl)oxy)-2-((palmitoyloxy)methyl)propoxy)-5-oxopentyl)propane-1,3-diyl dioctanoate]
87.9	CCCCCCCCCCCCCC(=O)OCC(COC(=O)CCCCC(COC(=O)CCCCCCC)COC(=O)CCCCCCC)COC(=O)C1CCN(C)C1 (centres unmarked) [Example 64, 2-(5-(3-((1-methylpyrrolidine-3-carbonyl)oxy)-2-((tetradecanoyloxy)methyl)propoxy)-5-oxopentyl)propane-1,3-diyl dioctanoate]
70.5	CCCCCCCCCCCCCC(=O)OCC(COC(=O)CCC(OCCCCCCCC)OCCCCCCCC)COC(=O)C1CCN(C)C1 (centres unmarked) [Example 66, 3-((4,4-bis(octyloxy)butanoyl)oxy)-2-((tetradecanoyloxy)methyl)propyl 1-methylpyrrolidine-3-carboxylate]
62.8	CCCCCCCCCCCCCCCC(=O)OCC(COC(=O)CCC(OCCCCCCCC)OCCCCCCCC)COC(=O)C1CCN(C)C1 (centres unmarked) [Example 67, 3-((4,4-bis(octyloxy)butanoyl)oxy)-2-((palmitoyloxy)methyl)propyl 1-methylpyrrolidine-3-carboxylate]
5.9	CCCCCCCCOC(CCC(=O)OCC(COC(=O)CCCCCCC(=O)OC)COC(=O)C1CCN(C)C1)OCCCCCCCC (centres unmarked) [Example 68, 1-(3-((4,4-bis(octyloxy)butanoyl)oxy)-2-(((1-methylpyrrolidine-3-carbonyl)oxy)methyl)propyl) 8-methyl octanedioate]
79.3	CCCCCCCCOC(=O)CCCCCCCCC(=O)OCC(COC(=O)CCC(OCCCCCCCC)OCCCCCCCC)COC(=O)C1CCN(C)C1 (centres unmarked) [Example 69, 1-(3-((4,4-bis(octyloxy)butanoyl)oxy)-2-(((1-methylpyrrolidine-3-carbonyl)oxy)methyl)propyl) 10-octyl decanedioate]

Further lines, the compound ahead of its results:

SMILES	% encapsulation mRNA Leptin [%]
CCCCC/C=C\C/C=C\CCCCCCCC(=O)OCC(COC(=O)CCC(OCCCCCCCC)OCCCCCCCC)COC(=O)NCCCN(C)C (centres unmarked) [Example 53, (9Z,12Z)-3-((4,4-bis(octyloxy)butanoyl)oxy)-2-((((3-(dimethylamino)propyl)carbamoyl)oxy)methyl)propyl octadeca-9,12-dienoate]	93.5
CCCCC/C=C\C/C=C\CCCCCCCC(=O)OCC(COC(=O)CCCCCCCCC(=O)OCCCCCCCC)COC(=O)C1(C)CCN(C)C1 (centres unmarked) [Example 56, 1-(3-((1,3-dimethylpyrrolidine-3-carbonyl)oxy)-2-(((9Z,12Z)-octadeca-9,12-dienoyloxy)methyl)propyl) 10-octyl decanedioate]	83.3
CCCCCCCCOC(CCC(=O)OCC(COC(=O)CCC(OCCCCCCCC)OCCCCCCCC)COC(=O)C1(C)CCN(C)C1)OCCCCCCCC (centres unmarked) [Example 58, 2-(((1,3-dimethylpyrrolidine-3-carbonyl)oxy)methyl)propane-1,3-diyl bis(4,4-bis(octyloxy)butanoate)]	86.0
CCCCCCCCOC(CCC(=O)OCC(COC(=O)CCC(OCCCCCCCC)OCCCCCCCC)COC(=O)CCN(C)C)OCCCCCCCC [Example 59, 2-(((3-(dimethylamino)propanoyl)oxy)methyl)propane-1,3-diyl bis(4,4-bis(octyloxy)butanoate)]	76.6
CCCCCCCCCCCCC(CCOC(=O)OCC(COC(=O)CCCCCCC(=O)OC)COC(=O)CCC(OCCCCCCCC)OCCCCCCCC)OC(=O)OCCCN(C)C (centres unmarked) [Example 70, 1-(16-(((4,4-bis(octyloxy)butanoyl)oxy)methyl)-9-dodecyl-2-methyl-7,13-dioxo-6,8,12,14-tetraoxa-2-azaheptadecan-17-yl) 8-methyl octanedioate]	92.1
CCCCCCCCOC(=O)CCCCCCCCC(=O)OCC(COC(=O)CCCCC(OCC(CCC)CCC)OCC(CCC)CCC)COC(=O)C1(C)CCN(C)CC1 (centres unmarked) [Example 71, 1-(3-((6,6-bis((2-propylpentyl)oxy)hexanoyl)oxy)-2-(((1,4-dimethylpiperidine-4-carbonyl)oxy)methyl)propyl) 10-octyl decanedioate]	96.5
CCCC(CCC)COC(CCCCC(=O)OCC(COC(=O)CCCCCCC(=O)OC)COC(=O)C1(C)CCN(C)CC1)OCC(CCC)CCC (centres unmarked) [Example 72, 1-(3-((6,6-bis((2-propylpentyl)oxy)hexanoyl)oxy)-2-(((1,4-dimethylpiperidine-4-carbonyl)oxy)methyl)propyl) 8-methyl octanedioate]	31.2
COC(=O)CCCCCCC(=O)OCC(COC(=O)CCCCCCC(=O)OC)COC(=O)C1CCN(C)C1 (centres unmarked) [Example 73, 8-dimethyl O′1,O1-(2-(((1-methylpyrrolidine-3-carbonyl)oxy)methyl)propane-1,3-diyl)dioctanedioate]	9.3
CCCCCCCCCCCCC(CCOC(=O)OCC(COC(=O)CCCCCCC(=O)OC)COC(=O)CCCCCCC(=O)OC)OC(=O)OCCCN(C)C (centres unmarked) [Example 74, O′1,O1-(2-(7-dodecyl-14-methyl-3,9-dioxo-2,4,8,10-tetraoxa-14-azapentadecyl)propane-1,3-diyl) 8-dimethyl dioctanedioate]	23.0
